For orientation: IC50 means the concentration needed to halve the response being measured.

For one assay, the target named is T1, CDK11A (Homo sapiens, UniProt Q9UQ88).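 Note: compound preincubated 30 min with CDK11A-p58, then probe added and polarization (mP) read 15 min later, 0% displacement is probe plus enzyme, 100% is probe alone.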
T1 sequence (Q9UQ88 346-783): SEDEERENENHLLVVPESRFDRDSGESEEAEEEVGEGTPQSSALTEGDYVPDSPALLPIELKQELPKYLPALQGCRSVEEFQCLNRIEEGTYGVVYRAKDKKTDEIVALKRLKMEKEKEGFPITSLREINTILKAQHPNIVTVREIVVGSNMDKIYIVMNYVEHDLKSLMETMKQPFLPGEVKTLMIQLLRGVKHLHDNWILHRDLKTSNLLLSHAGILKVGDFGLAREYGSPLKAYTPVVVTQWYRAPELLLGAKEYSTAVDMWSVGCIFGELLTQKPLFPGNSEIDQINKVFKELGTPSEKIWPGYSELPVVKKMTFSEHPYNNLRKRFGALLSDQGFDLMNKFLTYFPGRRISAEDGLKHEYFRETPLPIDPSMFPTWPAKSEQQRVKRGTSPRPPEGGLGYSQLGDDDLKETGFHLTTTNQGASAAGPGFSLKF
As to conditions: displacement of SNS-032-Atto590 probe (0.002 μM) from CDK11A-p58 (0.032 uM), fluorescence polarization. For orientation: Polarisation of emitted light reports the rotation of a fluorescent probe.

Another assay has as its system NB-4. The experiment in a line: Cytotoxicity assay (CellTiterGlo, 72 hours treatment), NB-4. As to conditions: NB-4 acute myeloid leukemia cells, ATP determination, read-out: Cell line IC50 NB-4. The class given is cell-based, Human. The method, then: (§1) Cell Lines and Cell Cultures
(§2) All cell lines were seeded at a density ranging from 2,400 to 8,000 cells/well in 384-well cell culture microplates and incubated at […] in a humidified 5% […] atmosphere 24 hours before treatment. Compound solutions were directly administered to the cells using the D300e digital dispenser (Tecan) to obtain scalar final concentrations ranging from 5 nM to 10 μM (duplicate wells for each point), with 80 uL final volume per well. The final DMSO concentration in test wells was adjusted to 0.1% (v/v); control wells were mock-treated and contained the same final concentration of DMSO.
(§3) Cell viability was determined after 72 hours treatment by ATP determination in each test well with a luciferase-based detection system (CellTiterGlo, Promega, Madison, WI, USA), following manufacturer's instructions. The intensity of emitted light was measured using an EnVision reader (PerkinElmer, Waltham, MA USA) and expressed as RLU. One to three independent experiments were performed for each cell line, as indicated.
(§4) Analysis of Antiproliferative Data
(§5) Cell growth inhibitory activity was evaluated comparing treated versus control data using the Assay Explorer software suite (Symix Technologies Inc.). IC50s values were calculated by sigmoidal fitting interpolation using the following quadriparametric Hill equation: […]
(§6) The Top, Bottom and Hill slope parameters were left free to assume any value, but only curves whose Hill slope had values between 0.5 and 4 were arbitrarily considered acceptable and used to calculate the average IC50s. Curves too steep (HillSlope≥4) or too slight (HillSlope≤0.5) were not included (Table C).
A general note: Cellular ATP, detected with luciferase, serves as a proxy for viable cell number.

The subject of the next assay is MOLM-13. As to the kind of experiment: Cytotoxicity assay (CellTiterGlo, 72 hours treatment), MOLM-13. Particulars: MOLM-13 acute myeloid leukemia cells, ATP determination, read-out: Cell line IC50 MOLM-13. In kind it is cell-based, Human. The method, then:
as §1, §2, §3, §4, §5, §6

A further assay concerns EoL-1-cell. The experiment in a line: Cytotoxicity assay (CellTiterGlo, 72 hours treatment), EoL-1. The class given is cell-based, Human. Particulars: EoL-1 acute myeloid leukemia cells, ATP determination, read-out: Cell line IC50 EoL-1-cell. As for the experimental part:
as §1, §2, §3, §4, §5, §6

Counter-ions that a name gives are not always drawn. Like-named read-outs stand apart in the source and are kept apart here.

Protocol for CDK11A: Biochemical Kinase Inhibition Assay on CDK11 in Displacement Assay Format
Displacement Assay Format
Fluorescence Polarization (FP) experiments were carried out at room temperature using no-binding black 384-well microplates (Corning, NY), in 50 mM Tris HCl, pH 8, 10 mM MgCl2, 1 mM DTT, 1 mM CHAPS in a final volume of 60 μl. The plate reader was the Pherastar microplate reader (BMG). Polarization values were read using excitation and emission wavelengths of 590 and 675 nm, respectively. All FP values are expressed as mP units.
Compounds were 4-folds serially diluted in 100% DMSO and added directly to the CDK11A-p58 solution using the pin tool (V & P Scientific): 0.2 ul of the different compound concentrations in 20 ul of enzyme solution. After an incubation of 30 minutes at r.t., 40 ul of probe solution were added. […] The Pherastar reading is performed after 15 minutes of all components incubation. For each assay, high controls (equivalent to 0% displacement) contain probe, CDK11A-p58, and 0.33% DMSO, whereas low controls (equivalent to 100% displacement) contain only probe and 0.33% DMSO. Controls are used for the Z′ and signal to background evaluation.
The data per each molecule are analyzed by Prism SW or an internally customized version of the SW package “Assay Explorer” which provides sigmoidal fittings of the ten-dilution curves for DC50 determination using a 4 parameters logistic equation:
where x is the logarithm of the inhibitor concentration, y is the response; y starts at bottom and goes to top with a sigmoid shape.

Molecule `N#Cc1ccc(Cl)c(-c2ccc3[nH]nc(NC(=O)[C@@H]4CCC5(CCCC5)NC4)c3c2)c1` (single isomer, unassigned) [compound 204, (8+)-N-[5-(2-Chloro-5-cyanophenyl)-1H-indazol-3-yl]-6-azaspiro[4.5]decane-8-carboxamide hydrochloride] had a DC50 at CDK11A of 0.03 µM. Further, the IC50 was 0.211 µM in the assay on NB-4 (Homo sapiens, NB-4, 72 h); 0.194 µM in the assay with MOLM-13 (Homo sapiens, MOLM-13, 72 h); 0.237 µM with EoL-1-cell (Homo sapiens, EOL1, 72 h).
For `N#Cc1ccc(Cl)c(-c2ccc3[nH]nc(NC(=O)[C@@H]4CCC5(CCCCC5)NC4)c3c2)c1` (single isomer, unassigned) [compound 206, (3+)-N-[5-(2-Chloro-5-cyanophenyl)-1H-indazol-3-yl]-1-azaspiro[5.5]undecane-3-carboxamide], the DC50 at CDK11A worked out at 0.023 µM. For the same molecule, the IC50 with NB-4 (Homo sapiens, NB-4, 72 h) amounted to 0.205 µM; in the assay on MOLM-13 (Homo sapiens, MOLM-13, 72 h), 0.194 µM; in the assay with EoL-1-cell (Homo sapiens, EOL1, 72 h) it was 0.18 µM.
At CDK11A, `CC1(C)CCC(C(=O)Nc2n[nH]c3ccc(-c4cc(C#N)ccc4Cl)cc23)CN1` (single isomer, unassigned; (+)) [compound 202, (+)-N-[5-(2-Chloro-5-cyanophenyl)-1H-indazol-3-yl]-6,6-dimethylpiperidine-3-carboxamide] gave a DC50 of 0.015 µM. The IC50 came to 0.056 µM with NB-4, 0.077 µM with MOLM-13 and 0.073 µM with EoL-1-cell.
The matching figures for `CC1(C)CCC(C(=O)Nc2n[nH]c3ccc(-c4cc(C#N)ccc4Cl)cc23)CN1` (single isomer, unassigned; (-)) [compound 203, (−)-N-[5-(2-Chloro-5-cyanophenyl)-1H-indazol-3-yl]-6,6-dimethylpiperidine-3-carboxamide]: 0.181 µM, 1.32 µM, 1.39 µM and 1.25 µM.
Take `CNC1CC(C(=O)Nc2n[nH]c3ccc(-c4c(Cl)cccc4Cl)cc23)C1` (stereo not shown) [compound 145, N-[5-(2,6-Dichlorophenyl)-1H-indazol-3-yl]-3-(methylamino)cyclobutanecarboxamide hydrochloride]: the DC50 at CDK11A was found to be 0.044 µM. Also, the concentration for half-maximal inhibition (IC50) was found to be 0.52 µM with NB-4 (Homo sapiens, NB-4, 72 h); 0.483 µM in the assay with MOLM-13 (Homo sapiens, MOLM-13, 72 h); 0.663 µM with EoL-1-cell (Homo sapiens, EOL1, 72 h).
The matching figures for `CCNC1CC(C(=O)Nc2n[nH]c3ccc(-c4cc(C#N)ccc4Cl)cc23)C1` (stereo not shown) [compound 152, N-[5-(2-Chloro-5-cyanophenyl)-1H-indazol-3-yl]-3-(ethylamino)cyclobutanecarboxamide hydrochloride]: 0.031 µM, 0.226 µM, 0.203 µM and 0.191 µM.
In turn, `O=C(Nc1n[nH]c2ccc(-c3c(Cl)cccc3Cl)cc12)C1CCCNC1` (stereo not shown) [compound 157, N-[5-(2,6-Dichlorophenyl)-1H-indazol-3-yl]piperidine-3-carboxamide hydrochloride] displayed a DC50 at CDK11A of 0.059 µM. Besides, the 50% inhibitory concentration (IC50) came to 0.512 µM with NB-4 (Homo sapiens, NB-4, 72 h); 0.521 µM with MOLM-13 (Homo sapiens, MOLM-13, 72 h); 0.59 µM in the assay on EoL-1-cell (Homo sapiens, EOL1, 72 h).
For `O=C(Nc1n[nH]c2ccc(-c3c(F)cccc3Cl)cc12)C1CCCNC1` (stereo not shown) [compound 165, N-[5-(2-Chloro-6-fluorophenyl)-1H-indazol-3-yl]piperidine-3-carboxamide hydrochloride] the same measures were 0.036 µM, 0.629 µM, 0.463 µM and 0.484 µM.
For `O=C(Nc1n[nH]c2ccc(-c3c(Cl)cccc3Cl)cc12)[C@@H]1CCNC1` [compound 167, (3R)-N-[5-(2,6-Dichlorophenyl)-1H-indazol-3-yl]pyrrolidine-3-carboxamide hydrochloride] the same measures were 0.027 µM, 0.525 µM, 0.61 µM and 0.651 µM.
For `O=C(Nc1n[nH]c2ccc(-c3c(Cl)cccc3Cl)cc12)[C@@H]1CCCNC1` [compound 169, (3R)-N-[5-(2,6-Dichlorophenyl)-1H-indazol-3-yl]piperidine-3-carboxamide hydrochloride] the same measures were 0.021 µM, 0.317 µM, 0.219 µM and 0.281 µM.
The molecule `N#Cc1ccc(Cl)c(-c2ccc3[nH]nc(NC(=O)C4CCCNC4)c3c2)c1` (stereo not shown) [compound 171, N-[5-(2-Chloro-5-cyanophenyl)-1H-indazol-3-yl]piperidine-3-carboxamide hydrochloride] showed a DC50 at CDK11A of 0.028 µM. The IC50 in the assay on NB-4 (Homo sapiens, NB-4, 72 h) turned out to be 0.416 µM; with MOLM-13 (Homo sapiens, MOLM-13, 72 h), 0.52 µM; with EoL-1-cell (Homo sapiens, EOL1, 72 h), 0.332 µM.
The matching figures for `N#Cc1ccc(Cl)c(-c2ccc3[nH]nc(NC(=O)[C@@H]4CCCNC4)c3c2)c1` [compound 174, (3R)-N-[5-(2-Chloro-5-cyanophenyl)-1H-indazol-3-yl]piperidine-3-carboxamide hydrochloride]: 0.023 µM, 0.171 µM, 0.19 µM and 0.165 µM.
In turn, `CN1CCC(C(=O)Nc2n[nH]c3ccc(-c4cc(C(N)=O)ccc4Cl)cc23)CC1` [cpd 117, N-[5-(5-Carbamoyl-2-chlorophenyl)-1H-indazol-3-yl]-1-methylpiperidine-4-carboxamide trifluoroacetate] yielded a DC50 at CDK11A of 0.153 µM.
Still for that read-out and setting: under `CN1CCC(C(=O)Nc2n[nH]c3ccc(-c4ccc(C=O)cc4F)cc23)CC1` [cpd 118, N-[5-(2-Fluoro-4-formylphenyl)-1H-indazol-3-yl]-1-methylpiperidine-4-carboxamide hydrochloride] stands 0.467 µM; under `Cc1ccc(-c2ccc3[nH]nc(NC(=O)C4CCN(C)CC4)c3c2)c(F)c1` [cpd 119, N-[5-(2-Fluoro-4-methylphenyl)-1H-indazol-3-yl]-1-methylpiperidine-4-carboxamide hydrochloride], 0.665 µM.
On the same count and under the same terms, under `COc1cc(F)c(-c2ccc3[nH]nc(NC(=O)C4CCN(C)CC4)c3c2)c(F)c1` [cpd 120, N-[5-(2,6-Difluoro-4-methoxyphenyl)-1H-indazol-3-yl]-1-methylpiperidine-4-carboxamide hydrochloride] stands 0.619 µM.
Still for that read-out and setting: the same measure for `CC(C)(C)COC(=O)n1nc(NC(=O)[C@@H]2CCCNC2)c2cc(-c3cc(C#N)ccc3Cl)ccc21` [cpd 212, 2,2-Dimethylpropyl 5-(2-chloro-5-cyanophenyl)-3-{[(3R)-piperidin-3-ylcarbonyl]amino}-1H-indazole-1-carboxylate hydrochloride]: 0.821 µM; for `O=C(Nc1n[nH]c2ccc(OCCF)cc12)[C@@H]1CCCNC1` [cpd 227, (3R)-N-[5-(2-Fluoroethoxy)-1H-indazol-3-yl]piperidine-3-carboxamide hydrochloride]: 0.071 µM; for `COCCOc1ccc2[nH]nc(NC(=O)[C@@H]3CCCNC3)c2c1` [cpd 228, (3R)-N-[5-(2-Methoxyethoxy)-1H-indazol-3-yl]piperidine-3-carboxamide hydrochloride]: 0.406 µM.
Regarding `CCOc1ccc2[nH]nc(NC(=O)[C@@H]3CCCNC3)c2c1` [cpd 229, (3R)-N-(5-Ethoxy-1H-indazol-3-yl)piperidine-3-carboxamide hydrochloride], the DC50 at CDK11A stood at 0.02 µM.
The same measure, in the same setting: under `CC(C)Oc1ccc2[nH]nc(NC(=O)[C@@H]3CCCNC3)c2c1` [cpd 230, (3R)-N-[5-(Propan-2-yloxy)-1H-indazol-3-yl]piperidine-3-carboxamide hydrochloride] stands 0.027 µM; under `CCCCOc1ccc2[nH]nc(NC(=O)[C@@H]3CCCNC3)c2c1` [cpd 231, (3R)-N-(5-Butoxy-1H-indazol-3-yl)piperidine-3-carboxamide hydrochloride], 0.071 µM.

The values are drawn from US20250206724A1, “SUBSTITUTED 3-AMINO INDAZOLE DERIVATIVES AS KINASE INHIBITORS” (NERVIANO MEDICAL SCIENCES S.R.L., priority 2022, published 2025).
